The term pEC50 denotes the EC50 on a negative log10 scale, so that one unit is a factor of ten.

Consider twelve compounds from ChEMBL document CHEMBL2034899, “5-Arylbenzothiadiazine Type Compounds as Positive Allosteric Modulators of AMPA/Kainate Receptors” (ACS Med Chem Lett, 2012).

Series [1] is described as follows: Drug uptake in mouse nucleus accumbens at 20 mg/kg, ip measured after 40 mins. Type of series: ADME, organism-based. Also noted: dose 20 mg/kg, route intraperitoneal. Particulars: read-out: Drug uptake.
Series [2] in a line: Drug uptake in mouse nucleus accumbens assessed as 7-chloro-5-(3-furyl)-3- methyl-4H-1,2,4-benzothiadiazine 1,1-dioxide level at 20 mg/kg, ip measured after 1 hr. More on the design: dose 20 mg/kg, route intraperitoneal. Particulars: in vivo, read-out: Drug uptake. Type of series: ADME, organism-based.
Series [3] in a line: Positive allosteric modulation at AMPA receptor in primary cortical neurons assessed as potentiation of kainate-induced current by patch clamp analysis. The format is cell-based. Particulars: Cerebral cortex neuron. (In patch-clamp work, channel activity is measured electrically.)
Series [4] can be described thus: Drug uptake in mouse nucleus accumbens assessed as 7-chloro-5-(3-furyl)-3- methyl-4H-1,2,4-benzothiadiazine 1,1-dioxide level at 20 mg/kg, ip measured after 140 mins. Particulars: in vivo. Also noted: dose 20 mg/kg, route intraperitoneal. The format is ADME, organism-based.
Series [5] is described as follows: Drug uptake in mouse nucleus accumbens at 20 mg/kg, ip measured after 2 hrs. The format is ADME, organism-based. More on the design: dose 20 mg/kg, route intraperitoneal. Particulars: in vivo.
Series [6] relates to Cerebral cortex neuron. Kind of series: Positive allosteric modulation at AMPA receptor in primary cortical neurons assessed as potentiation of kainate-induced current at 10 uM by patch clamp analysis. Type of series: cell-based.
A short description of series [7]: Drug uptake in mouse nucleus accumbens assessed as 7-chloro-5-(3-furyl)-3- methyl-4H-1,2,4-benzothiadiazine 1,1-dioxide level at 20 mg/kg, ip measured after 2 hrs. Particulars: in vivo. Type of series: ADME, organism-based. More on the design: dose 20 mg/kg, route intraperitoneal.
Series [8] concerns Cerebral cortex neuron. Kind of series: Positive allosteric modulation at AMPA receptor in primary cortical neurons assessed as potentiation of kainate-induced current at 100 uM by patch clamp analysis.

pEC50: −log10 of the molar value. The source made the active and inactive calls. The calls are words filed in the database; no cut-off is given here. Some results are limits rather than exact numbers.

For the compound `CC1Nc2c(-c3ccoc3)cc(Cl)cc2S(=O)(=O)N1` (stereo not given), the concentration at 40 min in series [1] was found to be 37 µM. In series [2], the concentration turned out to be 8 µM. Further, in series [3], the negative logarithm of the EC50 (pEC50) is 5.89. The Drug uptake entry in series [4] is “Not Active”; in series [5], “Not Active”; in series [7], “Active”. In addition, the Activity in the series with Cerebral cortex neuron [6] came out at 358%. The outcome in the series on Cerebral cortex neuron [8] was inactive.
`Nc1cccc(-c2cc(Cl)cc3c2NCNS3(=O)=O)c1`: the Activity in the series with Cerebral cortex neuron [6] was less than 10%. For the same compound, the outcome in the series with Cerebral cortex neuron [8] was inactive.
For the compound `O=C(O)c1ccc(-c2cc(Cl)cc3c2NCNS3(=O)=O)cc1`, the Activity in the series with Cerebral cortex neuron [6] is less than 10%. Further, in the series with Cerebral cortex neuron [8], the outcome was inactive.
Consider `CC1Nc2c(-c3cccs3)cc(Cl)cc2S(=O)(=O)N1` (stereo not given), for which the Activity with Cerebral cortex neuron [6] is less than 10%. Moreover, the outcome in the series with Cerebral cortex neuron [8] was inactive.
Turning to `CC1Nc2c(-c3ccsc3)cc(Cl)cc2S(=O)(=O)N1` (stereo not given), the Activity in the series with Cerebral cortex neuron [6] stood at 214%. In addition, in the series with Cerebral cortex neuron [8], the outcome was inactive.
For `CCC1Nc2c(-c3ccco3)cc(Cl)cc2S(=O)(=O)N1` (stereo not given), the Activity in the series on Cerebral cortex neuron [6] was less than 10%. Besides, in the series with Cerebral cortex neuron [8], the outcome was inactive.
For `CC1CN2c3c1cc(Cl)cc3S(=O)(=O)NC2C` (racemic), in the series on Cerebral cortex neuron [6], the Activity worked out at 53%. For the same compound, the result with Cerebral cortex neuron [8] was inactive.
In the same order, the values of `CC1Nc2c(-c3ccco3)cc(Cl)cc2S(=O)(=O)N1` (stereo not given) are 80% and “inactive”.
`O=S1(=O)NCNc2c(-c3ccco3)cc(Cl)cc21`: the Activity in the series with Cerebral cortex neuron [6] turned out to be 20%. Further, the outcome with Cerebral cortex neuron [8] was inactive.
In the same order, the values of `CC1Nc2c(-c3cccc(N)c3)cc(Cl)cc2S(=O)(=O)N1` (stereo not given) are less than 10% and “inactive”.
In the same order, the values of `CC1Nc2c(-c3ccc(C(=O)O)cc3)cc(Cl)cc2S(=O)(=O)N1` (stereo not given) are less than 10% and “inactive”.
In the same order, the values of `CCC1Nc2c(-c3ccc(C(=O)O)cc3)cc(Cl)cc2S(=O)(=O)N1` (stereo not given) are less than 10% and “inactive”.
